From patent publication US8142759B2, “Glyco-molecular imaging method for grade classification of liver fibrosis and its glyco-molecular imaging agent thereof” (Institute of Nuclear Energy Research, priority 2007, dated 2012) come the findings set out here.

This data set can be described thus: Storage stability at room temperature. Type of data set: physicochemical.

`O=C(O)CN(CCN1CC(=O)OC(=O)C1)CCN1CC(=O)OC(=O)C1` [DTPA anhydride]: for the setting “water dissolution”, the “storage stability at room temperature” value is listed as “much unstable”.

As to `O=C(CN(CCSC(c1ccccc1)(c1ccccc1)c1ccccc1)CC(=O)ON1C(=O)CCC1=O)NCCSC(c1ccccc1)(c1ccccc1)c1ccccc1` [SOCTA, succinimidyl-3,6-diaza-5-oxo-3-[2-((triphenyl-methyl)thio)ethyl]-8-[(triphenylmethyl)-thio]octanoate], the “storage time at room temperature” value (air/water stability) is listed as “one”.
